The source of these data is US20020169193A1, “Alkylphenyliminoimidazolidine derivatives for treating urinary incontinence” (priority 2001, published 2002).

Data set [1] deals with CYP2D6 (Homo sapiens, UniProt P10635). Kind of data set: Metabolism: substrate breakdown by enzyme CYP2D6. In kind it is in vitro ADME. The procedure: To determine the metabolism the enzyme CYP2D6 was allowed to act on the test substances. After 30 minutes, a check was made to see how much of the test substance put in had been degraded by the enzyme.
Chain of CYP2D6 (P10635 whole entry): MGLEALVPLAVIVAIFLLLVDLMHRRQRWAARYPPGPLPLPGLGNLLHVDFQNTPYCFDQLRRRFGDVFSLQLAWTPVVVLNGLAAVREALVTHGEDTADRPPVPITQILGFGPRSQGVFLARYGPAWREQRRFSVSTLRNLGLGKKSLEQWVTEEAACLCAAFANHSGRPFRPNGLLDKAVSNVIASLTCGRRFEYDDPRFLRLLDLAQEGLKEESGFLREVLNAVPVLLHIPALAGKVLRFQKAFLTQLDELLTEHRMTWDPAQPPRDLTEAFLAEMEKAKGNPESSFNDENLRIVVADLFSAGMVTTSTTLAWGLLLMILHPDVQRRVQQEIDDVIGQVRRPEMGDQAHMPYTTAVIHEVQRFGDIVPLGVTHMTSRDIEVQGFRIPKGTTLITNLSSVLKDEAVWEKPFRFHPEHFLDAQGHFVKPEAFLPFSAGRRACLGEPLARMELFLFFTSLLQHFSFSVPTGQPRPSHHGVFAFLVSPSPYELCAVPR
Data set [2] deals with HLM. Kind of data set: Metabolism: decomposition under the effect of HLM. The class given is in vitro ADME. The procedure: The decomposition under the effect of the enzyme HLM/60 minutes was tested analogously.
Data set [3] has as its system the Dog. Kind of data set: Efficacy: maximum contraction in the dog compared with noradrenaline. To be noted: percentage of contraction compared with noradrenaline. The procedure:
(§1) The efficacy and selectivity of the compounds is determined as follows:
(§2) Maximum contraction in the dog and activity on human urethra are percentages of contraction compared with noradrenaline. Selectivity in the dog is the percentage contraction of the dog's femoral artery at 10^−5 M—percentage contraction of the carotid artery in the dog at 10^−5 M.

Data set [4] concerns Human Urethra. Put plainly: Efficacy: contraction of human urethra compared with noradrenaline. Conditions: percentage of contraction compared with noradrenaline. As for the experimental part: as §1, §2
Data set [5] deals with dog's femoral artery / carotid artery in the dog. Kind of data set: Selectivity in the dog: femoral artery versus carotid artery contraction. Conditions: percentage contraction of femoral artery at 10^−5 M — percentage contraction of carotid artery at 10^−5 M. The procedure:
as §1, §2

Data set [6] can be described thus: Bioavailability, oral versus intravenous administration in rats, plasma HPLC. The class given is in vivo. Conditions: male fasted rats, oral vs intravenous, pooled plasma; for bioavailability: rat. The procedure:
To determine the bioavailability, the test substances were administered orally to a group of 8 male fasted rats. As a control, animals in an identical second group were given the test substances intravenously. At specified times after administration (10 minutes, 30 minutes, 1 hour, 2 hours and 4 hours, and additionally 6 hours in the case of the animals in the oral group) 1 mL blood samples were taken from the animals in both groups. The blood samples taken in each group were mixed together (8 mL). The content of the corresponding test substances in the blood for the appropriate time was determined from the plasma after further working up by HPLC (High Performance Liquid Chromatography) using standard methods and correlated for the two groups.

As for `Cc1c(NC2=NCCN2)cccc1C(C)C` [Compound 1, 3′-isopropyl-2′-methylphen-1′-yl-2-iminoimidazolidine], the “% Substrate Breakdown After 30 Minutes Incubation with CYP2D6” value in data set [1] stood at 18.2%. In addition, the “% Substrate Breakdown After 60 Minutes Incubation with HLM” value in data set [2] came out at 13.5%. In addition, the “Activity in the Dog” value in data set [3] was determined as 78%. The “Activity on Human Urethra” value in data set [4] was determined as 11%. Moreover, the “Selectivity in the Dog” value in data set [5] stood at 0.7.

Usually bioavailability stands for dose-corrected exposure relative to a reference, in per cent. Regarding `Cc1c(NC2=NCCN2)ccc(Br)c1C(C)C` [Compound 7, 4′-bromo-3′-isopropyl-2′-methylphen-1′-yl-2-iminoimidazolidine], in data set [6], the bioavailability is 53%. Moreover, the “% Substrate Breakdown After 30 Minutes Incubation with CYP2D6” value in data set [1] is 5.0%. Moreover, the “Activity in the Dog” value in data set [3] was 70%. For the same molecule, the “Activity on Human Urethra” value in data set [4] turned out to be 21%. Moreover, the “Selectivity in the Dog” value in data set [5] was determined as 0.7.

Regarding `CC(C)(C)c1ccc(Br)c(N=C2NCCN2)c1` [Compound 6, 6′-bromo-3′-tert-butylphen-1′-yl-2-iminoimidazolidine], the “% Substrate Breakdown After 30 Minutes Incubation with CYP2D6” value in data set [1] turned out to be 3.0%. In data set [2], the “% Substrate Breakdown After 60 Minutes Incubation with HLM” value is 2.8%. Further, in data set [3], the “Activity in the Dog” value turned out to be 28%.

Turning to `Cc1c(C(C)C)ccc(Br)c1NC1=NCCN1` [Compound 5, 6′-bromo-3′-isopropyl-2′-methylphen-1′-yl-2-iminoimidazolidine], in data set [1], the “% Substrate Breakdown After 30 Minutes Incubation with CYP2D6” value is reported as 8.7%. For the same molecule, the “% Substrate Breakdown After 60 Minutes Incubation with HLM” value in data set [2] was determined as 7.5%. Further, the “Activity in the Dog” value in data set [3] is listed as 34%. In addition, the “Selectivity in the Dog” value in data set [5] was 0.4.

As to `COc1ccc(C(C)(C)C)cc1N=C1NCCN1` [Compound 2, 3′-tert-butyl-6′-methoxyphen-1′-yl-2-iminoimidazolidine], in data set [6], the Bioavailability in % came to 34%. Moreover, the “% Substrate Breakdown After 30 Minutes Incubation with CYP2D6” value in data set [1] turned out to be 0.7%. In data set [2], the “% Substrate Breakdown After 60 Minutes Incubation with HLM” value came out at 2.7%. Further, the “Activity in the Dog” value in data set [3] was 71%. In addition, the “Activity on Human Urethra” value in data set [4] was determined as 30%. The “Selectivity in the Dog” value in data set [5] is listed as 0.6.

Turning to `Cc1c(C(C)C)ccc(Cl)c1NC1=NCCN1` [Compound 3, 6′-chloro-3′-isopropyl-2′-methylphen-1′-yl-2-iminoimidazolidine], in data set [6], the bioavailability is 8%. For the same molecule, the “% Substrate Breakdown After 30 Minutes Incubation with CYP2D6” value in data set [1] is given as 6.1%. Moreover, the “% Substrate Breakdown After 60 Minutes Incubation with HLM” value in data set [2] is recorded as 11.7%. For the same molecule, the “Activity in the Dog” value in data set [3] is given as 70%. Also, the “Activity on Human Urethra” value in data set [4] is given as 41%. In data set [5], the “Selectivity in the Dog” value is recorded as 0.7.

For `Cc1c(NC2=NCCN2)ccc(Cl)c1C(C)C` [Compound 4, 4′-chloro-3′-isopropyl-2′-methylphen-1′-yl-2-iminoimidazolidine], the “% Substrate Breakdown After 30 Minutes Incubation with CYP2D6” value in data set [1] is 7.6%. For the same molecule, the “% Substrate Breakdown After 60 Minutes Incubation with HLM” value in data set [2] came out at 5.5%. Also, the “Activity in the Dog” value in data set [3] turned out to be 59%. Moreover, the “Selectivity in the Dog” value in data set [5] came to 0.5.
